Source: patent publication US10919852B2, “Immunomodulator compounds” (CHEMOCENTRYX, INC., priority 2017, dated 2021)
pIC50: −log10 of the molar value.

Target: human PD-L1 / Human PD-1 (Homo sapiens (Human), UniProt Q9NZQ7)
Assay: Enzyme-Linked Immunosorbent Assay (ELISA), PD-1/PD-L1 binding
Conditions: plate-coated human PD-L1, biotinylated human PD-1
Procedure: Biological Example: Enzyme-Linked Immunosorbent Assay—ELISA
96 Well plates were coated with […] of human PD-L1 (obtained from R&D) in PBS overnight at 4° C. The wells were then blocked with 2% BSA in PBS (W/V) with 0.05% TWEEN-20 for 1 hour at 37° C. The plates were washed 3 times with PBS/0.05% TWEEN-20 and the compounds were serial diluted (1:5) in dilution medium and added to the ELISA plates. Human PD-1 and biotin 0.3 μg/mL (ACRO Biosystems) were added and incubated for 1 hour at 37° C. then washed 3 times with PBS/0.05% TWEEN-20. A second block was performed with 2% BSA in PBS (W/V)/0.05% TWEEN-20 for 10 min at 37° C. and was washed 3 times with PBS/0.05% TWEEN-20. Streptavidin-HRP was added for 1 hour at 37° C. then washed 3 times with PBS/0.05% TWEEN-20. TMB substrate was added and reacted for 20 min at 37° C. A stop solution (2 N aqueous H2SO4) was added. The absorbance was read at 450 nm using a micro-plate spectrophotometer.

human PD-L1 / Human PD-1, sequence (Q9NZQ7 19-239): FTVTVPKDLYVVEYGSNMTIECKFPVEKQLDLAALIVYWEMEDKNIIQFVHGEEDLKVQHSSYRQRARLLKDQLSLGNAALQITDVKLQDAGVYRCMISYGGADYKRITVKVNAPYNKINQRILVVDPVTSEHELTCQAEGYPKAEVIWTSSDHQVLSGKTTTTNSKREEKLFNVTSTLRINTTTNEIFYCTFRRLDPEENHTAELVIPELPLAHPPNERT

| SMILES | pIC50 |
| --- | --- |
| Cc1c(OCCCN2CCC(O)CC2)cccc1-c1cccc2c1CCC2Oc1cc(OCc2cc(C#N)cc(C#N)c2)c(CN[C@@H](CO)C(=O)O)cc1Cl (stereo partly drawn) | > 8.30 |
| Cc1c(OCCCN2CCC(O)CC2)cccc1-c1cccc2c1CCC2Oc1cc(OCc2cc(C#N)cc(C#N)c2)c(CN[C@@H]2CCCC[C@@H]2O)cc1Cl (stereo partly drawn) | > 8.30 |
| Cc1c(OCCCN2CCC(O)CC2)cccc1-c1cccc2c1CC[C@@H]2Oc1cc(OCc2cncc(C#N)c2)c(CN[C@H](C(=O)O)[C@@H](C)O)cc1Cl | > 8.30 |
| C[C@@H](O)[C@H](NCc1cc(Cl)c(O[C@H]2CCc3c(-c4cccc(OCCCN5CCC(O)CC5)c4F)cccc32)cc1OCc1cncc(C#N)c1)C(=O)O | > 8.30 |
| C[C@@](CO)(NCc1cc(Cl)c(O[C@H]2CCc3c(-c4cccc(OCCCN5CCC(O)CC5)c4F)cccc32)cc1OCc1cncc(C#N)c1)C(=O)O | > 8.30 |
| CCOc1cc(O[C@H]2CCc3c(-c4cccc(OCCCN5CCC(O)CC5)c4C)cccc32)c(Cl)cc1CN[C@@H](CO)C(=O)O | > 8.30 |
| CCOc1cc(O[C@H]2CCc3c(-c4cccc(OCCCN5CC[C@@H](O)C5)c4C)cccc32)c(Cl)cc1CN[C@@H]1CCCC[C@@H]1O | 6.30 to 8.30 |
| CCOc1cc(O[C@H]2CCc3c(-c4cccc(OCCCN5CC[C@@H](O)C5)c4C)cccc32)c(Cl)cc1CN[C@@H](CO)C(=O)OC(C)C | 6.30 to 8.30 |
| CCOc1cc(O[C@H]2CCc3c(-c4cccc(OCCCN5CC[C@@H](O)C5)c4C)cccc32)c(Cl)cc1CN[C@@](C)(CO)C(=O)OC(C)C | 6.30 to 8.30 |
| CCOc1cc(O[C@H]2CCc3c(-c4cccc(OCCCN5CC[C@@H](O)C5)c4C)cccc32)c(Cl)cc1CN1CCCC[C@H]1C(=O)O | 6.30 to 8.30 |
| Cc1c(OCCCN2CCC(O)CC2)cccc1-c1cccc2c1CC[C@@H]2Oc1cc(OCc2cncc(C#N)c2)c(CN[C@H](C(N)=O)[C@@H](C)O)cc1Cl | > 8.30 |
| Cc1c(OCCCN2CCC(O)CC2)cccc1-c1cccc2c1CC[C@@H]2Oc1cc(OCc2cncc(C#N)c2)c(CN[C@@H](CO)C(N)=O)cc1Cl | > 8.30 |
| Cc1c(OCCCN2CCC(O)CC2)cccc1-c1cccc2c1CC[C@@H]2Oc1cc(OCc2cncc(C#N)c2)c(CN[C@H](C(=O)NS(C)(=O)=O)[C@@H](C)O)cc1Cl | > 8.30 |
| Cc1c(OCCCN2CCC(O)CC2)cccc1-c1cccc2c1CC[C@@H]2Oc1cc(OCc2cncc(C#N)c2)c(CN2CCC(O)CC2)cc1Cl | > 8.30 |
| Cc1c(OCCCN2CCC(O)CC2)cccc1-c1cccc2c1CC[C@@H]2Oc1cc(OCc2cncc(C#N)c2)c(CN2CC[C@H](O)C2)cc1Cl | > 8.30 |
| CCOc1cc(O[C@H]2CCc3c(-c4cccc(OCCCN5CC[C@@H](O)C5)c4C)cccc32)c(Cl)cc1CNC(CO)CO | > 8.30 |
| CCOc1cc(O[C@H]2CCc3c(-c4cccc(OCCCN5CC[C@@H](O)C5)c4C)cccc32)c(Cl)cc1CNC(C)(CO)CO | > 8.30 |
| Cc1c(OCCCN2CCC(O)CC2)cccc1-c1cccc2c1CC[C@@H]2Oc1cc(OCc2cncc(C#N)c2)c(CN2CC[C@@H](O)C2)cc1Cl | > 8.30 |
| Cc1c(OCCCN2CCC(O)CC2)cccc1-c1cccc2c1CC[C@@H]2Oc1cc(OCc2cncc(C#N)c2)c(CNCC2CCC(=O)N2)cc1Cl (stereo partly drawn) | > 8.30 |

| SMILES | pIC50 |
| --- | --- |
| Cc1c(OCCCN2CCC(O)CC2)cccc1-c1cccc2c1CC[C@@H]2Oc1cc(OCc2cncc(C#N)c2)c(CNCC(C)(C)O)cc1Cl | > 8.30 |
| Cc1c(OCCCN2CCC(O)CC2)cccc1-c1cccc2c1CC[C@@H]2Oc1cc(OCc2cncc(C#N)c2)c(CN2CC(C(=O)O)C2)cc1Cl | > 8.30 |
| Cc1c(OCCCN2CCC(O)CC2)cccc1-c1cccc2c1CC[C@@H]2Oc1cc(OCc2cncc(C#N)c2)c(CN[C@@H]2CCCC[C@H]2O)cc1Cl | > 8.30 |
| Cc1c(OCCCN2CCC(O)CC2)cccc1-c1cccc2c1CC[C@@H]2Oc1cc(OCc2cncc(C#N)c2)c(CNC(C)(CO)CO)cc1Cl | 6.30 to 8.30 |
| Cc1c(OCCCN2CCC(O)CC2)cccc1-c1cccc2c1CC[C@@H]2Oc1cc(OCc2cncc(C#N)c2)c(CN2CC(O)C2)cc1Cl | > 8.30 |
| Cc1c(OCCCN2CCC(O)CC2)cccc1-c1cccc2c1CC[C@@H]2Oc1cc(OCc2cncc(C#N)c2)c(CNCc2cn(C)cn2)cc1Cl | > 8.30 |
| Cc1c(OCCCN2CCC(O)CC2)cccc1-c1cccc2c1CC[C@@H]2Oc1cc(OCc2cncc(C#N)c2)c(CN[C@@H]2CCC[C@H]2O)cc1Cl | > 8.30 |
| Cc1c(OCCCN2CCC(O)CC2)cccc1-c1cccc2c1CC[C@@H]2Oc1cc(OCc2cncc(C#N)c2)c(CNC2(C(=O)O)CCC2)cc1Cl | > 8.30 |
| Cc1c(OCCCN2CCC(O)CC2)cccc1-c1cccc2c1CC[C@@H]2Oc1cc(OCc2cncc(C#N)c2)c(CN[C@@H](CNC(=N)N)C(=O)O)cc1Cl | > 8.30 |
| Cc1c(OCCCN2CCC(O)CC2)cccc1-c1cccc2c1CC[C@@H]2Oc1cc(OCc2cncc(C#N)c2)c(CN2CCC(C)(O)CC2)cc1Cl | > 8.30 |
| COC(=O)C1(O)CCN(CCCOc2cccc(-c3cccc4c3CC[C@@H]4Oc3cc(OCc4cncc(C#N)c4)c(CN[C@H](C(=O)O)[C@@H](C)O)cc3Cl)c2C)C1 (stereo partly drawn) | > 8.30 |
| Cc1c(OCCCN2CC(C)(O)C2)cccc1-c1cccc2c1CC[C@@H]2Oc1cc(OCc2cncc(C#N)c2)c(CNCC2CCC(=O)N2)cc1Cl (stereo partly drawn) | > 8.30 |
| Cc1c(OCCCN2C3CCC2CC(O)C3)cccc1-c1cccc2c1CC[C@@H]2Oc1cc(OCc2cncc(C#N)c2)c(CNCC2CCC(=O)N2)cc1Cl (stereo partly drawn) | > 8.30 |
| Cc1c(OCCCN2CCC(F)CC2)cccc1-c1cccc2c1CC[C@@H]2Oc1cc(OCc2cncc(C#N)c2)c(CNCC2CCC(=O)N2)cc1Cl (stereo partly drawn) | > 8.30 |
| Cc1c(OCCCN2CC(O)C2)cccc1-c1cccc2c1CC[C@@H]2Oc1cc(OCc2cncc(C#N)c2)c(CNCC2CCC(=O)N2)cc1Cl (stereo partly drawn) | > 8.30 |
| N#Cc1cncc(COc2cc(O[C@H]3CCc4c(-c5cccc(OCCCN6CCC(O)CC6)c5Cl)cccc43)c(Cl)cc2CNCC2CCC(=O)N2)c1 (stereo partly drawn) | > 8.30 |
| C[C@@H](O)[C@H](NCc1cc(Cl)c(O[C@H]2CCc3c(-c4cccc(OCCCN5CCC(O)CC5)c4Cl)cccc32)cc1OCc1cncc(C#N)c1)C(N)=O | > 8.30 |
| Cc1c(OCCCN2CCC(F)CC2)cccc1-c1cccc2c1CC[C@@H]2Oc1cc(OCc2cncc(C#N)c2)c(CN[C@H](C(N)=O)[C@@H](C)O)cc1Cl | 6.30 to 8.30 |
| Cc1c(OCCCN2CCC(O)CC2)cccc1-c1cccc2c1C[C@@H](F)[C@@H]2Oc1cc(OCc2cncc(C#N)c2)c(CN[C@@H](CO)C(=O)O)cc1Cl | > 8.30 |

| SMILES | pIC50 |
| --- | --- |
| Cc1c(OCCCN2CCC(O)CC2)cccc1-c1cccc2c1C[C@H](F)[C@@H]2Oc1cc(OCc2cncc(C#N)c2)c(CN[C@H](C(=O)O)[C@@H](C)O)cc1Cl | > 8.30 |
| Cc1c(OCCCN2CCC(O)CC2)cccc1-c1cccc2c1C[C@H](F)[C@@H]2Oc1cc(OCc2cncc(C#N)c2)c(CN[C@@](C)(CO)C(=O)O)cc1Cl | > 8.30 |
| Cc1c(OCCCN2CCC(O)CC2)cccc1-c1cccc2c1C[C@H](F)[C@@H]2Oc1cc(OCc2cncc(C#N)c2)c(CN[C@@H]2CCCC[C@@H]2O)cc1Cl | > 8.30 |
| Cc1c(OCCCN2CC[C@H](F)C2)cccc1-c1cccc2c1CC[C@@H]2Oc1cc(OCc2cncc(C#N)c2)c(CN[C@@H]2CCCC[C@@H]2O)cc1Cl | > 8.30 |
| Cc1c(OCCCN2CC[C@@H](F)C2)cccc1-c1cccc2c1CC[C@@H]2Oc1cc(OCc2cncc(C#N)c2)c(CN[C@@H]2CCCC[C@@H]2O)cc1Cl | > 8.30 |
| Cc1c(OCCCN2CCC(O)(C(=O)O)CC2)cccc1-c1cccc2c1CC[C@@H]2Oc1cc(OCc2cncc(C#N)c2)c(CN[C@H](C(=O)O)[C@@H](C)O)cc1Cl | > 8.30 |
| CC(CO)(CO)NCc1cc(Cl)c(O[C@H]2CCc3c(-c4cccc(OCCCN5CCNC(=O)C5)c4Cl)cccc32)cc1OCc1cncc(C#N)c1 | > 8.30 |
| N#Cc1cncc(COc2cc(O[C@H]3CCc4c(-c5cccc(OCCCN6CCNC(=O)C6)c5Cl)cccc43)c(Cl)cc2CNC2(C(=O)O)CCC2)c1 | > 8.30 |
| N#Cc1cncc(COc2cc(O[C@H]3CCc4c(-c5cccc(OCCCN6CC7(CC(F)C7)C6)c5Cl)cccc43)c(Cl)cc2CN[C@@H]2CCCC[C@@H]2O)c1 | > 8.30 |
| N#Cc1cncc(COc2cc(O[C@H]3CCc4c(-c5cccc(OCCCN6CC7(C6)CC(F)(F)C7)c5Cl)cccc43)c(Cl)cc2CN[C@@H]2CCCC[C@@H]2O)c1 | > 8.30 |
| Cc1c(OCCCNCC(C)(C)O)cccc1-c1cccc2c1CC[C@@H]2Oc1cc(OCc2cncc(C#N)c2)c(CNCC2CCC(=O)N2)cc1Cl (stereo partly drawn) | > 8.30 |
| N#Cc1cc(C#N)cc(COc2cc(O[C@@H]3c4cccc(-c5cccc(OCCCN6CC(O)C6)c5Cl)c4C[C@@H]3F)c(Cl)cc2CNC[C@@H]2CCC(=O)N2)c1 | 6.30 to 8.30 |
| N#Cc1cncc(COc2cc(O[C@H]3CCc4c(-c5cccc(OCCCN6CCC(F)CC6)c5C(F)(F)F)cccc43)c(Cl)cc2CNCC2CCC(=O)N2)c1 (stereo partly drawn) | 6.30 to 8.30 |
| CC(C)(O)[C@H](NCc1cc(Cl)c(O[C@H]2CCc3c(-c4cccc(OCCCN5CCC(F)CC5)c4Cl)cccc32)cc1OCc1cncc(C#N)c1)C(=O)O | > 8.30 |
| N#Cc1cncc(COc2cc(O[C@H]3CCc4c(-c5cccc(OCCCN6CCC(F)CC6)c5Cl)cccc43)c(Cl)cc2CN2CCCC3(C2)NC(=O)NC3=O)c1 (stereo partly drawn) | 6.30 to 8.30 |
| CCOc1cc(O[C@H]2CCc3c(-c4cccc(OCCCN5CCC(F)CC5)c4Cl)cccc32)c(Cl)cc1CN[C@@H]1CCCC[C@@H]1O | 6.30 to 8.30 |
| CCOc1cc(O[C@H]2CCc3c(-c4cccc(OCCCN5CCC(F)CC5)c4Cl)cccc32)c(Cl)cc1CNCC1CCC(=O)N1 (stereo partly drawn) | 6.30 to 8.30 |
| N#Cc1cncc(COc2cc(O[C@H]3CCc4c(-c5cccc(OCCCN6CCC(F)CC6)c5C#N)cccc43)c(Cl)cc2CNCC2CCC(=O)N2)c1 (stereo partly drawn) | 6.30 to 8.30 |
| CC(C)OC(=O)[C@](C)(CO)NCc1cc(Cl)c(O[C@H]2CCc3c(-c4cccc(OCCCN5CC(O)C5)c4Cl)cccc32)cc1OCc1cncc(C#N)c1 | > 8.30 |
